# From patent US20250082630A1, “METHODS OF TREATING BRAIN TUMOURS AND NEUROBLASTOMAS” (AstraZeneca AB, priority 2021, published 2025)
# Legend:
# Type in all cases: cell-based
# [1] = system: BRCA2 (−/−) DLD1 cells; experiment: PARP proliferation assay (7 day compound dosing), BRCA2 (−/−) DLD1; details: Homo sapiens, DLD-1, 168 h, read-out: BRCA2 −/− DLD-1 prolif. 7 d IC50
# Procedure: DLD1 and BRCA2 (−/−) DLD1 cells were harvested to a density of 5000 cells/ml and 2.5E4 cells/ml respectively in complete media, 40 μL/well seeded into 384-well plates (Greiner, Kremsmunster, Austria; 781090) using a Multidrop Combi then incubated at 37° C., 5% CO2 overnight. Next day (Day 1) using a Multidrop Combi add sytox green (5ul, 2 uM) and saponin (10 ul, 0.25% stock) to a day 0 plate, seal the plate using a black adhesive lid and incubate for >3 h at it. Cells were imaged using Cell Insight (Thermo Fisher) fitted with a 4x objective. Test compounds are added using an Echo 555 and placed in incubator maintained at 37° C., 5% CO2 and incubated for 7 days. On Day 8 add sytox green (5ul, 2 uM) and then saponin (10 ul, 0.25% stock) to plates, seal the plate using a black adhesive lid and incubate for >3 h at it. Read all cells on the Cell Insight with 4× Objective. The rate of proliferation is determined in Genedata by assessing the total cell number output from the Cell Insight for Day 0 and Day 8 plates.
# [2] = system: U87 IDH1mt ATRXwt; experiment: Monotherapy treatment, U87 IDH1mt ATRXwt; details: read-out: Compound 20 IC50
# Procedure: (§1) To evaluate the activity and potency of the PARP inhibitors described herein in combination with the standard of care chemotherapy Temozolamide (TMZ), ionizing radiation (IR) and the emerging chemotherapy VAL-083, U87, SJG2 and BT245 glioblastoma cells were assayed. Parental U87 cell lines were obtained from the AstraZeneca Global Cell Bank in Alderley Park, UK and the isocistrate dehydrogenase 1 mutant cell line (IDH1 mt R1 32H) was licensed in from ATCC. The SJ-G2 (ATRX mutant) and BT245 (H3K27M mutant) cell lines were obtained from The Research Institute of the McGill University Health Centre, Montreal, QC H4A 3J1, Canada. IDH1R132 mutation was induced in SJG2 cell line to generated isogenic pair (SJG2 IDH1mt and SJG2 IDH1 wt). […]
# (§2) For the nuclear count end point assay, cells were fixed for ˜15 minutes (min) by the addition of 50 μl per well of Formaldehyde (Sigma-Aldrich F8775). […] The images were acquired using CellInsight CX5 (Thermo Fisher) and analysed by measuring the total number of hoechst stained nuclei. The number of nuclei (% confluence) of the drug treated wells were normalised to the DMSO control and the growth inhibition was calculated using the combenefit software (Di Veroli et al., 2016).
# [3] = system: PARylation in BT245 H3K27M paediatric glioma model; experiment: PARylation inhibition in paediatric glioma model
# [4] = target: PARP1 (Homo sapiens (Human), UniProt P09874); experiment: PARP1 trapping; details: data not shown
# Chain of PARP1 (P09874 whole entry): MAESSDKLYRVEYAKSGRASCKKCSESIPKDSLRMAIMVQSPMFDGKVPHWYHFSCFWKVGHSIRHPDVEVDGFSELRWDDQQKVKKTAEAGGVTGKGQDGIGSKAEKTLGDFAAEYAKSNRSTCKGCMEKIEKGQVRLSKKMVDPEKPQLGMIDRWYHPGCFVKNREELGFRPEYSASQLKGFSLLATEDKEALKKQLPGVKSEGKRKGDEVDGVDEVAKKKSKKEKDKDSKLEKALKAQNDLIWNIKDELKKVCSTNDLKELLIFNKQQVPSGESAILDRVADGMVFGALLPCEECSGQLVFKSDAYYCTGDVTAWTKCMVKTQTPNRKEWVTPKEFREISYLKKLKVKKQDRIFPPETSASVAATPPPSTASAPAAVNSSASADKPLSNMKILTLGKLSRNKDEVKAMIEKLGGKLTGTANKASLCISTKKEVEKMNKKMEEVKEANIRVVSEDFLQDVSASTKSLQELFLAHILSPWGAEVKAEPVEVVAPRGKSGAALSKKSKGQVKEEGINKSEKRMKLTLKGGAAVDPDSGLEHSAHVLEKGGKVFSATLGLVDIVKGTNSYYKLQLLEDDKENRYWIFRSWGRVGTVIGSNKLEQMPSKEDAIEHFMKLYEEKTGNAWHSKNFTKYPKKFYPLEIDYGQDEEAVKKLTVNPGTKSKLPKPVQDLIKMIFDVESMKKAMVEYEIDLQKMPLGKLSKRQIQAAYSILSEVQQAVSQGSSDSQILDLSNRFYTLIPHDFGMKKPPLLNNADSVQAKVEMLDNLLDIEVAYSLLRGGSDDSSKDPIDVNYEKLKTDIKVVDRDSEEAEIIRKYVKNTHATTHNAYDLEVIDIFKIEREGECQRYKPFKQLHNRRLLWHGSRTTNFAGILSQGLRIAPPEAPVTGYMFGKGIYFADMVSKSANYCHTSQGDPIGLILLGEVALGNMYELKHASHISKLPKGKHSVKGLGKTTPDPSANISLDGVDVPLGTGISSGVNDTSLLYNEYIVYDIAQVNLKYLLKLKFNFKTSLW
# [5] = system: U87 IDH1 wt and IDH1 mt isogenic pairs; experiment: Combination assay PARP inhibitor with VAL-083, U87 isogenic pairs
# Procedure: as §1, §2
smiles,measurement,setting,value
"CNC(=O)c1ccc(N2CCN(Cc3ccc4nc(C)c(=O)[nH]c4c3F)CC2)c(F)n1 [Example 20, 6-fluoro-5-[4-[(5-fluoro-2-methyl-3-oxo-4H-quinoxalin-6-yl)methyl]piperazin-1-yl]-N-methyl-pyridine-2-carboxamide]",IC50,[1],8 nM
same,IC50,[2],> 100 µM
same,IC95 for PARylation inhibition,[3],4 nM
same,lowest concentration with potent trapping of PARP1,[4],10 nM
same,combination effect with VAL-083,[5],synergises with VAL-083
